Laboratory results published in paper PMC5218480 (PLoS ONE, 2017).

System: MV-4-11 cells
Assay: Gene expression microarray analysis (Affymetrix PrimeView) and GSEA
Format: cell-based, human
Design: RFU PODN (11730768_x_at) / Fold change /veh PODN (11730768_x_at) / RFU LINC00158 (11744669_a_at) / Fold change /veh LINC00158 (11744669_a_at) / RFU DUSP10 (11751237_a_at) / Fold change /veh DUSP10 (11751237_a_at) / RFU ID3 (11757404_x_at) / Fold change /veh ID3 (11757404_x_at) / RFU PLEKHG5 (11737974_s_at) / Fold change /veh PLEKHG5 (11737974_s_at) / RFU LRRC4B (11730491_at) / Fold change /veh LRRC4B (11730491_at) / RFU GIMAP4 (11747438_a_at) / Fold change /veh GIMAP4 (11747438_a_at) / RFU KRT8 (11758183_x_at) / Fold change /veh KRT8 (11758183_x_at) / RFU CNN1 (11734310_a_at) / Fold change /veh CNN1 (11734310_a_at) / RFU VPS37D (11726825_at) / Fold change /veh VPS37D (11726825_at) / RFU C10orf10 (11716522_x_at) / Fold change /veh C10orf10 (11716522_x_at) / RFU KIR2DL2 /// KIR2DL4 /// KIR2DL5A /// KIR2DL5B /// KIR2DS1 /// KIR2DS2 /// KIR2DS3 /// KIR2DS4 /// KIR3DL3 /// KIR3DL3 /// KIR3DS1 (11738374_at) / Fold change /veh KIR2DL2 /// KIR2DL4 /// KIR2DL5A /// KIR2DL5B /// KIR2DS1 /// KIR2DS2 /// KIR2DS3 /// KIR2DS4 /// KIR3DL3 /// KIR3DL3 /// KIR3DS1 (11738374_at) / RFU C1QL1 (11718748_at) / Fold change /veh C1QL1 (11718748_at) / RFU TMPRSS4 (11747572_a_at) / Fold change /veh TMPRSS4 (11747572_a_at) / RFU HAMP (11756126_x_at) / Fold change /veh HAMP (11756126_x_at) / RFU RNFT2 (11725882_a_at) / Fold change /veh RNFT2 (11725882_a_at) / RFU NR4A2 (11747474_a_at) / Fold change /veh NR4A2 (11747474_a_at) / RFU ABCC12 (11746883_a_at) / Fold change /veh ABCC12 (11746883_a_at) / RFU TMEM136 (11760407_x_at) / Fold change /veh TMEM136 (11760407_x_at) / RFU CLDN22 /// WWC2 (11732394_at) / Fold change /veh CLDN22 /// WWC2 (11732394_at) / RFU HLA-DPB1 (11760878_x_at) / Fold change /veh HLA-DPB1 (11760878_x_at) / RFU SPINT1 (11716480_a_at) / Fold change /veh SPINT1 (11716480_a_at) / RFU GAP43 (11754022_s_at) / Fold change /veh GAP43 (11754022_s_at) / RFU A4GNT (11735810_at) / Fold change /veh A4GNT (11735810_at) / RFU PRB3 (11715151_x_at) / Fold change /veh PRB3 (11715151_x_at) / RFU TUBB4B (11761932_at) / Fold change /veh TUBB4B (11761932_at) / RFU CAPN14 (11732068_a_at) / Fold change /veh CAPN14 (11732068_a_at) / RFU TMCC2 (11721928_a_at) / Fold change /veh TMCC2 (11721928_a_at) / RFU IRGQ (11745062_a_at) / Fold change /veh IRGQ (11745062_a_at) / RFU FAM174B (11720279_a_at) / Fold change /veh FAM174B (11720279_a_at) / RFU TMPRSS4 (11748680_a_at) / Fold change /veh TMPRSS4 (11748680_a_at) / RFU FAM212B (11763350_a_at) / Fold change /veh FAM212B (11763350_a_at) / RFU PLEKHG5 (11743358_a_at) / Fold change /veh PLEKHG5 (11743358_a_at) / RFU ZSCAN30 (11745921_a_at) / Fold change /veh ZSCAN30 (11745921_a_at) / RFU CMKLR1 (11741424_a_at) / Fold change /veh CMKLR1 (11741424_a_at) / RFU LOC101060620 /// MAPK8IP1 (11723275_at) / Fold change /veh LOC101060620 /// MAPK8IP1 (11723275_at) / RFU SPTSSB (11747773_x_at) / Fold change /veh SPTSSB (11747773_x_at) / RFU PRSS12 (11739890_at) / Fold change /veh PRSS12 (11739890_at) / RFU BIN1 (11741810_x_at) / Fold change /veh BIN1 (11741810_x_at) / RFU WNT11 (11732464_a_at) / Fold change /veh WNT11 (11732464_a_at) / RFU C10orf10 (11716521_a_at) / Fold change /veh C10orf10 (11716521_a_at) / RFU C5orf56 (11738089_at) / Fold change /veh C5orf56 (11738089_at) / RFU CYB561 (11721691_x_at) / Fold change /veh CYB561 (11721691_x_at) / RFU ANKRD19P (11752326_a_at) / Fold change /veh ANKRD19P (11752326_a_at) / RFU OR2T12 /// OR2T33 /// OR2T8 (11738714_s_at) / Fold change /veh OR2T12 /// OR2T33 /// OR2T8 (11738714_s_at) / RFU VCAN (11748164_a_at) / Fold change /veh VCAN (11748164_a_at) / RFU JSRP1 (11732532_at) / Fold change /veh JSRP1 (11732532_at) / RFU KRTAP10-11 (11738290_x_at) / Fold change /veh KRTAP10-11 (11738290_x_at) / RFU MYO3A (11730013_a_at) / Fold change /veh MYO3A (11730013_a_at) / RFU EBF3 (11725865_a_at) / Fold change /veh EBF3 (11725865_a_at) / RFU CAMK2N1 (11719241_x_at) / Fold change /veh CAMK2N1 (11719241_x_at) / RFU C5orf56 (11738088_a_at) / Fold change /veh C5orf56 (11738088_a_at) / RFU OLFML3 (11715873_a_at) / Fold change /veh OLFML3 (11715873_a_at) / RFU LOC100653217 /// NTM (11731650_a_at) / Fold change /veh LOC100653217 /// NTM (11731650_a_at) / RFU MAPK11 (11762145_a_at) / Fold change /veh MAPK11 (11762145_a_at) / RFU FIZ1 (11724087_x_at) / Fold change /veh FIZ1 (11724087_x_at) / RFU OASL (11726364_x_at) / Fold change /veh OASL (11726364_x_at) / RFU SOX15 (11748057_x_at) / Fold change /veh SOX15 (11748057_x_at) / RFU CD79A (11719716_a_at) / Fold change /veh CD79A (11719716_a_at) / RFU HIST1H1D (11736915_at) / Fold change /veh HIST1H1D (11736915_at) / RFU CASKIN2 (11723855_a_at) / Fold change /veh CASKIN2 (11723855_a_at) / RFU LOC730098 (11760151_x_at) / Fold change /veh LOC730098 (11760151_x_at) / RFU OR4N2 (11742367_at) / Fold change /veh OR4N2 (11742367_at) / RFU PRRT2 (11749266_a_at) / Fold change /veh PRRT2 (11749266_a_at) / RFU SNX32 (11753110_a_at) / Fold change /veh SNX32 (11753110_a_at) / RFU CDHR5 (11726645_a_at) / Fold change /veh CDHR5 (11726645_a_at) / RFU RCAN1 (11760418_a_at) / Fold change /veh RCAN1 (11760418_a_at) / RFU FAM167A (11723789_a_at) / Fold change /veh FAM167A (11723789_a_at) / RFU FAM26E (11764081_at) / Fold change /veh FAM26E (11764081_at) / RFU ISYNA1 (11749810_s_at) / Fold change /veh ISYNA1 (11749810_s_at) / RFU ACY1 (11761880_at) / Fold change /veh ACY1 (11761880_at) / RFU 11764098_at / Fold change /veh 11764098_at / RFU SAMD14 (11745864_x_at) / Fold change /veh SAMD14 (11745864_x_at) / RFU NPB (11741838_a_at) / Fold change /veh NPB (11741838_a_at) / RFU TMPRSS6 (11731388_a_at) / Fold change /veh TMPRSS6 (11731388_a_at) / RFU KRTAP10-2 (11738614_at) / Fold change /veh KRTAP10-2 (11738614_at) / RFU ARHGAP8 /// PRR5-ARHGAP8 (11727945_x_at) / Fold change /veh ARHGAP8 /// PRR5-ARHGAP8 (11727945_x_at) / RFU KRTAP5-7 /// NADSYN1 (11734609_at) / Fold change /veh KRTAP5-7 /// NADSYN1 (11734609_at) / RFU RASL12 (11751679_a_at) / Fold change /veh RASL12 (11751679_a_at) / RFU CDKN2B (11736163_a_at) / Fold change /veh CDKN2B (11736163_a_at) / RFU PRF1 (11729649_at) / Fold change /veh PRF1 (11729649_at) / RFU, ZNF638 /// ZNF638-IT1 / Fold change vs veh, ZNF638 /// ZNF638-IT1 / RFU, PANK3 / Fold change vs veh, PANK3 / RFU, SH3YL1 / Fold change vs veh, SH3YL1 / RFU, ZEB2 / Fold change vs veh, ZEB2 / RFU, NRIP1 / Fold change vs veh, NRIP1 / RFU, PTTG1IP / Fold change vs veh, PTTG1IP / RFU, CAPN2 / Fold change vs veh, CAPN2 / RFU, MED14 / Fold change vs veh, MED14 / RFU, SNORA58 / Fold change vs veh, SNORA58 / RFU, C1orf63 / Fold change vs veh, C1orf63 / RFU, LRRFIP1 / Fold change vs veh, LRRFIP1 / RFU, NDUFAF7 / Fold change vs veh, NDUFAF7 / RFU, SLC12A2 / Fold change vs veh, SLC12A2 / RFU, IBTK / Fold change vs veh, IBTK / RFU, ESF1 / Fold change vs veh, ESF1 / Fold change vs veh, TMEM50B / RFU, TAOK1 / Fold change vs veh, TAOK1 / RFU, ACBD3 / Fold change vs veh, ACBD3 / RFU, TMA16 / Fold change vs veh, TMA16 / RFU, RWDD3 / Fold change vs veh, RWDD3 / RFU, BCAT1 / Fold change vs veh, BCAT1 / RFU, EDEM3 / Fold change vs veh, EDEM3 / RFU, TMEM33 / Fold change vs veh, TMEM33 / RFU, WDR75 / Fold change vs veh, WDR75 / RFU, AHCTF1 / Fold change vs veh, AHCTF1 / RFU, TFRC / Fold change vs veh, TFRC / RFU, ZDHHC17 / Fold change vs veh, ZDHHC17 / RFU, NOM1 / Fold change vs veh, NOM1 / RFU, ARL8B / Fold change vs veh, ARL8B / RFU, ZBTB11 / Fold change vs veh, ZBTB11 / RFU, TAMM41 / Fold change vs veh, TAMM41 / RFU, KIAA1704 /// LOC100996395 / Fold change vs veh, KIAA1704 /// LOC100996395 / RFU, ING1 / Fold change vs veh, ING1 / RFU, TRMT61B / Fold change vs veh, TRMT61B / RFU, FUBP3 / Fold change vs veh, FUBP3 / RFU, TP53 / Fold change vs veh, TP53 / RFU, TNKS2 / Fold change vs veh, TNKS2 / RFU, ZFP14 / Fold change vs veh, ZFP14 / RFU, ACTR2 / Fold change vs veh, ACTR2 / RFU, PPP3R1 / Fold change vs veh, PPP3R1 / RFU, PIK3R1 / Fold change vs veh, PIK3R1 / RFU, HNRNPA1 / Fold change vs veh, HNRNPA1 / RFU, RNF170 / Fold change vs veh, RNF170 / RFU, ZNF28 / Fold change vs veh, ZNF28 / RFU, RNGTT / Fold change vs veh, RNGTT / RFU, OGT / Fold change vs veh, OGT / RFU, BRD1 / Fold change vs veh, BRD1 / RFU, MARS / Fold change vs veh, MARS / RFU, ZNF655 / Fold change vs veh, ZNF655 / RFU, FAHD1 / Fold change vs veh, FAHD1 / RFU, BDP1 / Fold change vs veh, BDP1 / RFU, LRRCC1 / Fold change vs veh, LRRCC1 / RFU, ARID1A / Fold change vs veh, ARID1A / RFU, ZNF146 / Fold change vs veh, ZNF146 / RFU, ZNF330 / Fold change vs veh, ZNF330 / RFU, GPN3 / Fold change vs veh, GPN3 / RFU, C9orf123 / Fold change vs veh, C9orf123 / RFU, N4BP2L2 / Fold change vs veh, N4BP2L2 / RFU, ARFIP1 / Fold change vs veh, ARFIP1 / RFU, FAM179B / Fold change vs veh, FAM179B / RFU, BCL10 / Fold change vs veh, BCL10 / RFU, UHRF1BP1L / Fold change vs veh, UHRF1BP1L / RFU, BET1 / Fold change vs veh, BET1 / RFU, CNOT2 / Fold change vs veh, CNOT2 / RFU, ZNF268 / Fold change vs veh, ZNF268 / Fold change vs veh, ZNF507 / RFU, DGCR2 / Fold change vs veh, DGCR2 / RFU, WDSUB1 / Fold change vs veh, WDSUB1 / Fold change vs veh, HSP90B1 /// MIR3652 / RFU, ADSS / Fold change vs veh, ADSS / RFU, GK / Fold change vs veh, GK / RFU, ZNF148 / Fold change vs veh, ZNF148 / RFU, TAF9 / Fold change vs veh, TAF9 / RFU, SLC1A5 / Fold change vs veh, SLC1A5 / RFU, SLMO2 / Fold change vs veh, SLMO2 / RFU, ABCC4 / Fold change vs veh, ABCC4 / RFU, LOC101060439 /// RAP1B / Fold change vs veh, LOC101060439 /// RAP1B / RFU, RFX7 / Fold change vs veh, RFX7 / RFU, GTPBP10 / Fold change vs veh, GTPBP10 / RFU, CNEP1R1 / Fold change vs veh, CNEP1R1 / RFU, BIVM-ERCC5 /// ERCC5 / Fold change vs veh, BIVM-ERCC5 /// ERCC5 / RFU, ILF3 / Fold change vs veh, ILF3 / RFU 11762660_at / Fold change /veh 11762660_at / RFU VCAN (11757783_s_at) / Fold change /veh VCAN (11757783_s_at) / RFU DDX43 (11728927_at) / Fold change /veh DDX43 (11728927_at) / RFU KRT8 (11758188_x_at) / Fold change /veh KRT8 (11758188_x_at) / RFU NKD1 (11759106_at) / Fold change /veh NKD1 (11759106_at) / RFU SRD5A1 (11742802_a_at) / Fold change /veh SRD5A1 (11742802_a_at) / RFU TPSAB1 /// TPSB2 (11721975_s_at) / Fold change /veh TPSAB1 /// TPSB2 (11721975_s_at) / RFU GSTM3 (11746129_a_at) / Fold change /veh GSTM3 (11746129_a_at) / RFU IL23R (11737362_x_at) / Fold change /veh IL23R (11737362_x_at) / RFU TMEM51 (11727254_a_at) / Fold change /veh TMEM51 (11727254_a_at) / RFU PIWIL2 (11732686_x_at) / Fold change /veh PIWIL2 (11732686_x_at) / RFU ORM1 (11744905_x_at) / Fold change /veh ORM1 (11744905_x_at) / RFU CCDC152 (11743942_at) / Fold change /veh CCDC152 (11743942_at) / RFU ECM1 (11717891_a_at) / Fold change /veh ECM1 (11717891_a_at) / RFU IL23R (11748794_a_at) / Fold change /veh IL23R (11748794_a_at) / RFU TNFAIP8L3 (11732012_x_at) / Fold change /veh TNFAIP8L3 (11732012_x_at) / RFU MBOAT4 (11741988_at) / Fold change /veh MBOAT4 (11741988_at) / RFU 11764193_at / Fold change /veh 11764193_at / RFU TMEM53 (11763286_at) / Fold change /veh TMEM53 (11763286_at) / RFU MAGEB2 (11727129_at) / Fold change /veh MAGEB2 (11727129_at) / RFU TMEM200A (11744735_a_at) / Fold change /veh TMEM200A (11744735_a_at) / RFU CCDC152 (11751479_a_at) / Fold change /veh CCDC152 (11751479_a_at) / RFU FAM211A (11726209_a_at) / Fold change /veh FAM211A (11726209_a_at) / RFU RGS16 (11746705_a_at) / Fold change /veh RGS16 (11746705_a_at) / RFU VCAN (11755009_s_at) / Fold change /veh VCAN (11755009_s_at) / RFU RHOB (11743442_s_at) / Fold change /veh RHOB (11743442_s_at) / RFU RGS16 (11720943_a_at) / Fold change /veh RGS16 (11720943_a_at) / RFU RGS16 (11720944_at) / Fold change /veh RGS16 (11720944_at) / RFU, VPS4B / Fold change vs veh, VPS4B / RFU, CREB1 / Fold change vs veh, CREB1 / RFU, DNAJC13 / Fold change vs veh, DNAJC13 / RFU, GNAQ / Fold change vs veh, GNAQ / RFU, CDK5R1 / Fold change vs veh, CDK5R1 / RFU, ZRANB3 / Fold change vs veh, ZRANB3 / RFU, CUL4A / Fold change vs veh, CUL4A / RFU, CCNY / Fold change vs veh, CCNY / RFU, UFL1 / Fold change vs veh, UFL1 / RFU, COG3 / Fold change vs veh, COG3 / RFU, DIAPH2 / Fold change vs veh, DIAPH2 / RFU, SKA2 / Fold change vs veh, SKA2 / RFU, AFF3 / Fold change vs veh, AFF3 / RFU, LMF1 / Fold change vs veh, LMF1 / RFU, IPO11 / Fold change vs veh, IPO11 / RFU, DFFB / Fold change vs veh, DFFB / RFU, FOXP1 / Fold change vs veh, FOXP1 / RFU, CARD8 / Fold change vs veh, CARD8 / RFU, STRN3 / Fold change vs veh, STRN3 / RFU, ADK / Fold change vs veh, ADK / RFU, RASSF2 / Fold change vs veh, RASSF2 / RFU, WIPF1 / Fold change vs veh, WIPF1 / RFU, LARP1B / Fold change vs veh, LARP1B / RFU, RASA1 / Fold change vs veh, RASA1 / RFU, RB1 / Fold change vs veh, RB1 / RFU, PPFIA1 / Fold change vs veh, PPFIA1 / RFU, MAT2A / Fold change vs veh, MAT2A / RFU, CCT5 / Fold change vs veh, CCT5 / RFU, WDR92 / Fold change vs veh, WDR92 / RFU, CUX1 / Fold change vs veh, CUX1 / RFU, TTC7A / Fold change vs veh, TTC7A / RFU, TMEM135 / Fold change vs veh, TMEM135 / RFU, DEPTOR / Fold change vs veh, DEPTOR / RFU, CPM / Fold change vs veh, CPM / RFU, DNAJB6 / Fold change vs veh, DNAJB6 / RFU, CACNA2D3 / Fold change vs veh, CACNA2D3 / RFU, DTX4 / Fold change vs veh, DTX4 / RFU, TFCP2 / Fold change vs veh, TFCP2 / RFU, GMCL1 /// GMCL1P1 / Fold change vs veh, GMCL1 /// GMCL1P1 / RFU, AEBP2 / Fold change vs veh, AEBP2 / RFU, SNHG1 /// SNORD22 /// SNORD25 /// SNORD26 /// SNORD27 /// SNORD28 /// SNORD29 /// SNORD31 / Fold change vs veh, SNHG1 /// SNORD22 /// SNORD25 /// SNORD26 /// SNORD27 /// SNORD28 /// SNORD29 /// SNORD31 / Fold change (Aza/veh), C12orf56 (ProbeSet 11735607_a_at) / Fold change (ACY-1035/veh), C12orf56 (ProbeSet 11735607_a_at) / Fold change (Aza/veh), FGFR1OP (ProbeSet 11751329_s_at) / Fold change (ACY-1035/veh), FGFR1OP (ProbeSet 11751329_s_at) / Fold change (Aza/veh), VPS36 (ProbeSet 11739960_a_at) / Fold change (ACY-1035/veh), VPS36 (ProbeSet 11739960_a_at) / RFU SYPL1 (11715823_x_at) / Fold change /veh SYPL1 (11715823_x_at) / RFU IGFBP7 (11715501_s_at) / Fold change /veh IGFBP7 (11715501_s_at) / RFU REEP3 (11722064_at) / Fold change /veh REEP3 (11722064_at) / RFU IGLL1 (11728026_x_at) / Fold change /veh IGLL1 (11728026_x_at): dose or concentration left out as unconfirmed
Conditions: MV-4-11 cells, 48 hours

## Nc1ccc(-c2cccs2)cc1NC(=O)c1ccc2c(c1)cc(C1CC1)n2CCN1CCOCC1 [ACY-1035]
  RFU ACY1 (11761880_at): 20.30 RFU
